Reference: patent US12398120B2, “Substituted hydantoinamides as ADAMTS7 antagonists” (BAYER AKTIENGESELLSCHAFT, priority 2019, dated 2025)

What follows are molecules tested against ADAMTS4 (Homo sapiens (Human), UniProt O75173) (assay: Selectivity assay for ADAMTS-7 modulators: ADAMTS4 (FRET substrate)). Conditions: ADAMTS4 (R&D 4307-AD) 50 nM, substrate Dabcyl-EEVKAKVQPY-Glu(Edans)-NH2 1 μM, 120 min, 32° C.
Format: biochemical
Outline: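 Human ADAMTS4 with compound in DMSO, or DMSO control; reaction started by adding FRET substrate in reaction buffer. Fluorescence increase measured at substrate-specific wavelengths. IC50 derived from % inhibition of enzyme activity versus compound concentration.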

Sequence of ADAMTS4 (O75173 213-685): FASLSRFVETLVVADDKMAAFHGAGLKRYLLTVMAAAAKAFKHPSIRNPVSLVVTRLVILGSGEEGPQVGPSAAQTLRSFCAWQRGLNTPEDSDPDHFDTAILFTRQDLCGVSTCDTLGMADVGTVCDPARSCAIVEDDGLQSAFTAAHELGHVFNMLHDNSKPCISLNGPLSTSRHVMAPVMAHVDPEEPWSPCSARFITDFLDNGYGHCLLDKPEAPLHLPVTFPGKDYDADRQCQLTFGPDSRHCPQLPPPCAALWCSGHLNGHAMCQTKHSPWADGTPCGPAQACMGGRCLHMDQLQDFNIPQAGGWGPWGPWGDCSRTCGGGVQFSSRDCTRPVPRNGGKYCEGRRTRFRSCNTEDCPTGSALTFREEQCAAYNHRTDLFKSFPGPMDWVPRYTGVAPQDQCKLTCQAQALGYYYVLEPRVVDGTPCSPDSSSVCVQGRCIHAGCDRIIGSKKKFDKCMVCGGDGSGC

IC50 [µM]	SMILES
36.5	CC(C)C1(CNC(=O)c2ccccc2-c2ccc(C(F)(F)F)cc2)NC(=O)NC1=O (stereo not drawn) [Example 209, Ent-N-[(4-Isopropyl-2,5-Dioxoimidazolidin-4-Yl)Methyl]-4′-(Trifluoromethyl)[Biphenyl]-2-Carboxamide]
28	CC(C)C1(CNC(=O)c2ccccc2-c2ccc(C(F)(F)F)nc2)NC(=O)NC1=O (stereo not drawn) [Example 211, Ent-N-[(4-Isopropyl-2,5-Dioxoimidazolidin-4-Yl)Methyl]-2-[6-(Trifluoromethyl)Pyridin-3-Yl]Benzamide]
3.5	Cc1ccc(-c2cc(Cl)ccc2C(=O)NC[C@@]2(C3CC3)NC(=O)NC2=O)cc1 [Example 215, 5-Chloro-N-{[(4R)-4-Cyclopropyl-2,5-Dioxoimidazolidin-4-Yl]Methyl}-4′-Methyl[Biphenyl]-2-Carboxamide]
9.1	O=C1NC(=O)[C@](CNC(=O)c2ccc(Cl)cc2-c2ccc(C(F)(F)F)cc2)(C2CC2)N1 [Example 216, 5-Chloro-N-{[(4R)-4-Cyclopropyl-2,5-Dioxoimidazolidin-4-Yl]Methyl}-4′-(Trifluoromethyl)[1,1′-Biphenyl]-2-Carboxamide]
16	CS(=O)(=O)c1ccc(-c2ccccc2C(=O)NC[C@@]2(C3CC3)NC(=O)NC2=O)cc1 [Example 217, N-{[(4R)-4-Cyclopropyl-2,5-Dioxoimidazolidin-4-Yl]Methyl}-4′-(Methanesulfonyl)[1,1′-Biphenyl]-2-Carboxamide]
4	Cc1ccc(C(=O)NC[C@@]2(C3CC3)NC(=O)NC2=O)c(-c2ccc(C(F)(F)F)cc2)c1 [Example 218, N-{[(4R)-4-Cyclopropyl-2,5-Dioxoimidazolidin-4-Yl]Methyl}-5-Methyl-4′-(Trifluoromethyl)[Biphenyl]-2-Carboxamide]
2.8	Cc1ccc(-c2ccc(F)cc2C(=O)NC[C@@]2(C3CC3)NC(=O)NC2=O)cc1 [Example 219, N-{[(4R)-4-Cyclopropyl-2,5-Dioxoimidazolidin-4-Yl]Methyl}-4-Fluoro-4-Methyl[Biphenyl]-2-Carboxamide]
7.8	O=C1NC(=O)[C@](CNC(=O)c2ccccc2-c2ccc(Cl)cc2)(C2CC2)N1 [Example 220, 4′-Chloro-N-{[(4R)-4-Cyclopropyl-2,5-Dioxoimidazolidin-4-Yl]Methyl}[1,1′-Biphenyl]-2-Carboxamide]
8.1	Cc1ccc(-c2ccccc2C(=O)NC[C@@]2(C3CC3)NC(=O)NC2=O)cc1F [Example 221, N-{[(4R)-4-Cyclopropyl-2,5-Dioxoimidazolidin-4-Yl]Methyl}-3′-Fluoro-4′-Methyl[1,1′-Biphenyl]-2-Carboxamide]
3	Cc1ccc(-c2cccc(Cl)c2C(=O)NC[C@@]2(C3CC3)NC(=O)NC2=O)cc1 [Example 222, 3-Chloro-N-{[(4R)-4-Cyclopropyl-2,5-Dioxoimidazolidin-4-Yl]Methyl}-4′-Methyl[1,1′-Biphenyl]-2-Carboxamide]
26	N#Cc1ccc(-c2ccccc2C(=O)NC[C@@]2(C3CC3)NC(=O)NC2=O)cc1 [Example 223, 4′-Cyano-N-{[(4R)-4-Cyclopropyl-2,5-Dioxoimidazolidin-4-Yl]Methyl}[1,1′-Biphenyl]-2-Carboxamide]
19	O=C1NC(=O)[C@](CNC(=O)c2ccccc2-c2ccc(C(F)(F)F)nc2)(C2CC2)N1 [Example 224, N-{[(4R)-4-Cyclopropyl-2,5-Dioxoimidazolidin-4-Yl]Methyl}-2-[6-(Trifluoromethyl)Pyridin-3-Yl]Benzamide]
21	Cc1ccc(-c2ccccc2C(=O)NC[C@@]2(C3CC3)NC(=O)NC2=O)cc1Cl [Example 225, 3′-Chloro-N-{[(4R)-4-Cyclopropyl-2,5-Dioxoimidazolidin-4-Yl]Methyl}-4′-Methyl[1,1′-Biphenyl]-2-Carboxamide]
> 50	O=C1NC(=O)[C@](CNC(=O)c2ccccc2-c2ccc(C(F)(F)F)c(Cl)c2)(C2CC2)N1 [Example 226, 3′-Chloro-N-{[(4R)-4-Cyclopropyl-2,5-Dioxoimidazolidin-4-Yl]Methyl}-4′-(Trifluoromethyl)[1,1′-Biphenyl]-2-Carboxamide]
41	O=C1NC(=O)[C@](CNC(=O)c2ccccc2-c2ccc(Cl)c(Cl)c2)(C2CC2)N1 [Example 227, 3′,4′-Dichloro-N-{[(4R)-4-Cyclopropyl-2,5-Dioxoimidazolidin-4-Yl]Methyl}[1,1′-Biphenyl]-2-Carboxamide]
20	Cc1ccc(-c2ccccc2C(=O)NC[C@@]2(C3CC3)NC(=O)NC2=O)cn1 [Example 228, N-{[(4R)-4-Cyclopropyl-2,5-Dioxoimidazolidin-4-Yl]Methyl}-2-(6-Methylpyridin-3-Yl)Benzamide]
20	Cc1ccc(-c2cccc(F)c2C(=O)NC[C@@]2(C3CC3)NC(=O)NC2=O)cc1 [Example 229, N-{[(4R)-4-Cyclopropyl-2,5-Dioxoimidazolidin-4-Yl]Methyl}-3-Fluoro-4′-Methyl[1,1′-Biphenyl]-2-Carboxamide]
33	O=C1NC(=O)[C@](CNC(=O)c2c(F)cccc2-c2ccc(C(F)(F)F)cc2)(C2CC2)N1 [Example 230, N-{[(4R)-4-Cyclopropyl-2,5-Dioxoimidazolidin-4-Yl]Methyl}-3-Fluoro-4′-(Trifluoromethyl)[1,1′-Biphenyl]-2-Carboxamide]
5.2	O=C1NC(=O)[C@](CNC(=O)c2c(Cl)cccc2-c2ccc(Cl)cc2)(C2CC2)N1 [Example 231, 3,4′-Dichloro-N-{[(4R)-4-Cyclopropyl-2,5-Dioxoimidazoidin-4-Yl]Methyl}[1,1′-Biphenyl]-2-Carboxamide]
3.7	O=C1NC(=O)[C@](CNC(=O)c2ccc(Cl)cc2-c2ccc(Cl)cc2)(C2CC2)N1 [Example 232, 4′,5-Dichloro-N-{[(4R)-4-Cyclopropyl-2,5-Dioxoimidazolidin-4-Yl]Methyl}[1,1′-Biphenyl]-2-Carboxamide]
6.5	O=C1NC(=O)[C@](CNC(=O)c2cc(F)ccc2-c2ccc(Cl)cc2)(C2CC2)N1 [Example 233, 4′-Chloro-N-{[(4R)-4-Cyclopropyl-2,5-Dioxoimidazolidin-4-Yl]Methyl}-4-Fluoro[1,1′-Biphenyl]-2-Carboxamide]
16	O=C1NC(=O)[C@](CNC(=O)c2cc(F)ccc2-c2ccc(Cl)c(Cl)c2)(C2CC2)N1 [Example 234, 3′,4′-Dichloro-N-{[(4R)-4-Cyclopropyl-2,5-Dioxoimidazolidin-4-Yl]Methyl}-4-Fluoro[1,1′-Biphenyl]-2-Carboxamide]
7.83	O=C1NC(=O)[C@](CNC(=O)c2cccc(F)c2-c2ccc(C(F)(F)F)cc2)(C2CC2)N1 [Example 235, N-{[(4R)-4-Cyclopropyl-2,5-Dioxoimidazolidin-4-Yl]Methyl}-6-Fluoro-4′-(Trifluoromethyl)[1,1′-Biphenyl]-2-Carboxamide]
15	Cc1ccc(-c2ccccc2C(=O)NCC2(C3CCC3)NC(=O)NC2=O)cc1 (stereo not drawn) [Example 236, Ent-N-[(4-Cyclobutyl-2,5-Dioxoimidazolidin-4-Yl)Methyl]-4′-Methyl[Biphenyl]-2-Carboxamide]
> 50	O=C1NC(=O)C(CNC(=O)c2ccccc2-c2ccc(C(F)(F)F)cc2)(C2CCC2)N1 (stereo not drawn) [Example 237, Ent-N-[(4-Cyclobutyl-2,5-Dioxoimidazolidin-4-Yl)Methyl]-4′-(Trifluoromethyl)[Biphenyl]-2-Carboxamide]
